This note sets out measurements from patent publication US12188947B2, “Marker for diagnosing atherosclerosis severity, and diagnostic method using same” (EWHA UNIVERSITY—INDUSTRY COLLABORATION FOUNDATION, priority 2018, dated 2025).

The data set is described as follows: Metabolic phenotype (body weight, metabolic organ weights) after LGI3 antagonist peptide injection. Type of data set: in vivo, mouse. As to the method: LGI3 P34, made with a mouse LGI3 antagonist peptide, is a 15mer synthetic peptide containing amino acids (aa) […] (DEGRQKFVRFQELAV (SEQ ID NO:3)) of mouse Lgi3. The synthetic LGI3 peptide was dissolved in PBS and sterilized by filtration. PBS injection was used as a control for mouse experiments. All peptides were synthesized by Peptron (Seoul, Korea). Apoe^−/− mice fed a high fat diet for 16 weeks were intraperitoneally injected with PBS or the LGI3 antagonist peptide twice a week for the last 5 weeks.
Statistical analysis was performed using InStat. A two-sided Mann-Whitney U-test was used for comparison between two groups, and one-way ANOVA was used for comparisons among three or more groups. All data is presented as mean s.e.m, and P-values of ≤0.05 were considered statistically significant.

Where no end group is shown, it is not given here.

Regarding “DEGRQKFVRFQELAV [LGI3 P34, DEGRQKFVRFQELAV]”, the epididymal fat weight (Apoe −/− mice, high fat diet 16 weeks, intraperitoneal injection for the last 5 weeks, n=9, PBS control 1.689±0.43, P=0.84) amounted to 1.58±0.51%. In addition, the body weight (Apoe −/− mice, high fat diet 16 weeks, intraperitoneal injection for the last 5 weeks, n=9, PBS control 39.22±3.51, P=0.536) came to 38.08 ± 2.19 g. Also, the “metabolic phenotype (in words)” value (body weight, WAT, spleen and liver weight to body weight versus control mice, FIG. 6) was “not changed”.
